These results are taken from patent US20230365553A1, “COMPOUNDS AND COMPOSITIONS FOR TREATING CONDITIONS ASSOCIATED WITH STING ACTIVITY” (IFM Due, Inc., priority 2020, published 2023).

Molecules are shown by their SMILES.

The target of this assay is T1, STING (Homo sapiens, UniProt Q86WV6, G230A/H232R/R293Q/R71H).
T1 construct: host or cells: THP1-Dual KO-IFNAR2 cells
T1 sequence (Q86WV6 whole entry R71H/G230A/H232R/R293Q): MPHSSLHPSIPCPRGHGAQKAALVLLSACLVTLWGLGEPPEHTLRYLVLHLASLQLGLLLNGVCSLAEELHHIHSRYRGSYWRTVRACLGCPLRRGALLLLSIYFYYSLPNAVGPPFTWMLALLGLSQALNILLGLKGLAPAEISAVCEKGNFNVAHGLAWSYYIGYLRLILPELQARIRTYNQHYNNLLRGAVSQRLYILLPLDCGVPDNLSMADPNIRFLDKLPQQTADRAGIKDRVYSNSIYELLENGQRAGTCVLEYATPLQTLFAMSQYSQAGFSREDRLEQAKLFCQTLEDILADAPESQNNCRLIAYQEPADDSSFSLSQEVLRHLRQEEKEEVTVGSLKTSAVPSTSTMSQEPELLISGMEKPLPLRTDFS
Briefly: STING reporter assay: luciferase reporter activity in THP1-Dual KO-IFNAR2 cells stimulated with 2′3′cGAMP. The conditions noted are these: 15 μM 2′3′cGAMP, 24h, read-out: hSTING EC50. Type of assay: cell-based. In short, it runs like this:
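THP1-Dual KO-IFNAR2 cells (2×10E6 cells/mL) were exposed to compounds at 0.0017-100 μM, then stimulated with 2′3′cGAMP (15 μM final) transfected via Lipofectamine 2000. After 24h at 37° C., secreted luciferase in supernatant was read by QUANTI-Luc luminescence; EC50 derived from concentration-response.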
For orientation: A reporter such as luciferase makes a cellular process visible.
In general, EC50 refers to the midpoint of the concentration-response curve. For `Cn1cnc(C(=O)Nc2c[nH]c3ccc(-c4cnn(-c5ccc(C(F)(F)F)cc5)c4)cc23)c1` [Compound 281, 1-methyl-N-(5-(1-(4-(trifluoromethyl)phenyl)-1H-pyrazol-4-yl)-1H-indol-3-yl)-1H-imidazole-4-carboxamide], the EC50 was in the range of 1000 to 5000 nM.

On to `N#CC1(C(=O)Nc2c[nH]c3ccc(-c4cnn(-c5ccc(C(F)(F)F)cc5)c4)cc23)CCC1` [Compound 229, 1-cyano-N-(5-(1-(4-(trifluoromethyl)phenyl)-1H-pyrazol-4-yl)-1H-indol-3-yl)cyclobutane-1-carboxamide], for which the EC50 fell in the range of 1000 to 5000 nM.

Consider `O=C(Nc1c[nH]c2ccc(-c3cnn(-c4ccc(C(F)(F)F)cc4)c3)cc12)c1ccno1` [Compound 262, N-(5-(1-(4-(trifluoromethyl)phenyl)-1H-pyrazol-4-yl)-1H-indol-3-yl)isoxazole-5-carboxamide], for which the concentration for a half-maximal effect (EC50) is 200 to 1000 nM.

Turning to `CC(=O)NC(C)C(=O)Nc1c[nH]c2ccc(-c3cnn(-c4ccc(C(F)(F)F)cc4)c3)cc12` (centres unmarked) [Compound 215, 2-acetamido-N-(5-(1-(4-(trifluoromethyl)phenyl)-1H-pyrazol-4-yl)-1H-indol-3-yl)propanamide], the EC50 is 1000 to 5000 nM.

As for `Cc1nc(C(=O)Nc2c[nH]c3ccc(-c4cnn(-c5ccc(C(F)(F)F)cc5)c4)cc23)co1` [Compound 270, 2-methyl-N-(5-(1-(4-(trifluoromethyl)phenyl)-1H-pyrazol-4-yl)-1H-indol-3-yl)oxazole-4-carboxamide], the EC50 fell in the range of 200 to 1000 nM.

As for `O=C(Nc1c[nH]c2ccc(-c3cnn(-c4ccc(C(F)(F)F)cc4)c3)cc12)C1CC(O)C1` (centres unmarked) [Compound 242, 3-hydroxy-N-(5-(1-(4-(trifluoromethyl)phenyl)-1H-pyrazol-4-yl)-1H-indol-3-yl)cyclobutane-1-carboxamide], the EC50 lay in the range of 200 to 1000 nM.

On to `CC(C)CC(C)(N)C(=O)Nc1c[nH]c2ccc(-c3cnn(-c4ccc(C(F)(F)F)cc4)c3)cc12` (centres unmarked) [Compound 182, 2-amino-2,4-dimethyl-N-(5-(1-(4-(trifluoromethyl)phenyl)-1H-pyrazol-4-yl)-1H-indol-3-yl)pentanamide], for which the EC50 was 5000 to 100000 nM.

As for `CC1(C(=O)Nc2c[nH]c3ccc(-c4cnn(-c5ccc(C(F)(F)F)cc5)c4)cc23)CCCO1` (centres unmarked) [Compound 203, 2-methyl-N-(5-(1-(4-(trifluoromethyl)phenyl)-1H-pyrazol-4-yl)-1H-indol-3-yl)tetrahydrofuran-2-carboxamide], the EC50 lay in the range of 5000 to 100000 nM.

Turning to `CCC(=O)Nc1c[nH]c2ccc(N3CCN(c4ccccc4)CC3)cc12` [Compound 131, N-(5-(4-phenylpiperazin-1-yl)-1H-indol-3-yl)propionamide], the half-maximal effective concentration (EC50) is 5000 to 100000 nM.

For the compound `COC(C)C(=O)Nc1c[nH]c2ccc(-c3cnn(-c4ccc(C(F)(F)F)cc4)c3)cc12` (centres unmarked) [Compound 227, 2-methoxy-N-(5-(1-(4-(trifluoromethyl)phenyl)-1H-pyrazol-4-yl)-1H-indol-3-yl)propanamide], the EC50 fell in the range of 1000 to 5000 nM.

For the compound `O=C(Nc1c[nH]c2ccc(-c3cnn(-c4ccc(C(F)(F)F)cc4)c3)cc12)C1CCC(F)(F)CC1` [Compound 237, 4,4-difluoro-N-(5-(1-(4-(trifluoromethyl)phenyl)-1H-pyrazol-4-yl)-1H-indol-3-yl)cyclohexane-1-carboxamide], the EC50 fell in the range of 200 to 1000 nM.

For the compound `CCC(=O)Nc1c[nH]c2ccc(-c3ccc(C4(C#N)CC4)cc3)cc12` [Compound 144, N-(5-(4-(1-cyanocyclopropyl)phenyl)-1H-indol-3-yl)propionamide], the EC50 lay in the range of 5000 to 100000 nM.

As for `CCc1ccc(-n2cc(-c3ccc4[nH]cc(NC(=O)C5CCCO5)c4c3)cn2)cc1` (centres unmarked) [Compound 122, N-(5-(1-(4-ethylphenyl)-1H-pyrazol-4-yl)-1H-indol-3-yl)tetrahydrofuran-2-carboxamide], the EC50 fell in the range of 200 to 1000 nM.

For `CCC(=O)Nc1c[nH]c2ccc(-c3cnn(-c4ccc(C(F)(F)F)cc4)c3)cc12` [Compound 139, N-(5-(1-(4-(trifluoromethyl)phenyl)-1H-pyrazol-4-yl)-1H-indol-3-yl)propionamide], the EC50 fell in the range of 200 to 1000 nM.

With `CCC(=O)Nc1c[nH]c2ccc(-c3cnn(-c4ccc(C(F)(F)F)cn4)c3)cc12` [Compound 105, N-(5-(1-(5-(trifluoromethyl)pyridin-2-yl)-1H-pyrazol-4-yl)-1H-indol-3-yl)propionamide], the EC50 was 200 to 1000 nM.

Turning to `CCC(O)C(=O)Nc1c[nH]c2ccc(-c3cnn(-c4ccc(C(F)(F)F)cc4)c3)cc12` (centres unmarked) [Compound 197, 2-hydroxy-N-(5-(1-(4-(trifluoromethyl)phenyl)-1H-pyrazol-4-yl)-1H-indol-3-yl)butanamide], the EC50 was in the range of 200 to 1000 nM.

`CCc1ccc(-n2cc(-c3ccc4[nH]cc(NC(C)=O)c4c3)cn2)cc1` [Compound 134, N-(5-(1-(4-ethylphenyl)-1H-pyrazol-4-yl)-1H-indol-3-yl)acetamide]: the EC50 lay within 40 to 200 nM.

Consider `CN1CC(C(=O)Nc2c[nH]c3ccc(-c4cnn(-c5ccc(C(F)(F)F)cc5)c4)cc23)C1=O` (centres unmarked) [Compound 205, 1-methyl-2-oxo-N-(5-(1-(4-(trifluoromethyl)phenyl)-1H-pyrazol-4-yl)-1H-indol-3-yl)azetidine-3-carboxamide], for which the EC50 lay in the range of 1000 to 5000 nM.

As for `CCC(=O)Nc1c[nH]c2ccc(-c3cccc(COC)c3)cc12` [Compound 145, N-(5-(3-(methoxymethyl)phenyl)-1H-indol-3-yl)propionamide], the EC50 was 5000 to 100000 nM.

For the compound `CCc1ccc(-n2cc(-c3ccc4[nH]cc(NC(=O)C5CCN(C(=O)OC(C)(C)C)C5)c4c3)cn2)cc1` (centres unmarked) [Compound 108, tert-butyl 3-((5-(1-(4-ethylphenyl)-1H-pyrazol-4-yl)-1H-indol-3-yl)carbamoyl)pyrrolidine-1-carboxylate], the EC50 is 200 to 1000 nM.

Take `CCc1ccc(-n2cc(-c3ccc4[nH]cc(NC(=O)C5CCCC5)c4c3)cn2)cc1` [Compound 115, N-(5-(1-(4-ethylphenyl)-1H-pyrazol-4-yl)-1H-indol-3-yl)cyclopentanecarboxamide]: the EC50 was in the range of 40 to 200 nM.

In the case of `CCc1ccc(-n2cc(-c3ccc4[nH]cc(NC(=O)C5CCC5)c4c3)cn2)cc1` [Compound 124, N-(5-(1-(4-ethylphenyl)-1H-pyrazol-4-yl)-1H-indol-3-yl)cyclobutanecarboxamide], the EC50 fell in the range of 40 to 200 nM.

As to `CC(=O)Nc1c[nH]c2ccc(-c3cnn(-c4ccc(C5(C)CCCCC5)cc4)c3)cc12` [Compound 171, N-(5-(1-(4-(1-methylcyclohexyl)phenyl)-1H-pyrazol-4-yl)-1H-indol-3-yl)acetamide], the EC50 was 1000 to 5000 nM.

Turning to `Cn1ccc(C(=O)Nc2c[nH]c3ccc(-c4cnn(-c5ccc(C(F)(F)F)cc5)c4)cc23)n1` [Compound 276, 1-methyl-N-(5-(1-(4-(trifluoromethyl)phenyl)-1H-pyrazol-4-yl)-1H-indol-3-yl)-1H-pyrazole-3-carboxamide], the EC50 was in the range of 200 to 1000 nM.

For the compound `O=C(Nc1c[nH]c2ccc(-c3cnn(-c4ccc(C(F)(F)F)cc4)c3)cc12)c1ccon1` [Compound 280, N-(5-(1-(4-(trifluoromethyl)phenyl)-1H-pyrazol-4-yl)-1H-indol-3-yl)isoxazole-3-carboxamide], the EC50 fell in the range of 200 to 1000 nM.

Regarding `CCC(=O)Nc1c[nH]c2ccc(-c3cnn(-c4ccc(C#N)cc4)c3)cc12` [Compound 101, N-(5-(1-(4-cyanophenyl)-1H-pyrazol-4-yl)-1H-indol-3-yl)propionamide], the EC50 was 200 to 1000 nM.

Turning to `CC(=O)Nc1c[nH]c2ccc(-c3cnn(-c4ccc(F)c(F)c4)c3)cc12` [Compound 170, N-(5-(1-(3,4-difluorophenyl)-1H-pyrazol-4-yl)-1H-indol-3-yl)acetamide], the EC50 is 1000 to 5000 nM.

In the case of `CCC(C)(O)C(=O)Nc1c[nH]c2ccc(-c3cnn(-c4ccc(C(F)(F)F)cc4)c3)cc12` (centres unmarked) [Compound 200, 2-hydroxy-2-methyl-N-(5-(1-(4-(trifluoromethyl)phenyl)-1H-pyrazol-4-yl)-1H-indol-3-yl)butanamide], the EC50 fell in the range of 1000 to 5000 nM.

For the compound `CC(NS(C)(=O)=O)C(=O)Nc1c[nH]c2cc(F)c(-c3cnn(-c4ccc(C(F)(F)F)cc4)c3)cc12` (centres unmarked) [Compound 193, N-(6-fluoro-5-(1-(4-(trifluoromethyl)phenyl)-1H-pyrazol-4-yl)-1H-indol-3-yl)-2-(methylsulfonamido)propanamide], the EC50 lay in the range of 1000 to 5000 nM.

On to `CCC(=O)Nc1c[nH]c2ccc(-c3ccnn3-c3ccc(C(F)(F)F)cc3)cc12` [Compound 116, N-(5-(1-(4-(trifluoromethyl)phenyl)-1H-pyrazol-5-yl)-1H-indol-3-yl)propionamide], for which the EC50 was 5000 to 100000 nM.

Regarding `O=C(Nc1c[nH]c2ccc(-c3cnn(-c4ccc(C(F)(F)F)cc4)c3)cc12)C1(C(F)(F)F)CC1` [Compound 238, 1-(trifluoromethyl)-N-(5-(1-(4-(trifluoromethyl)phenyl)-1H-pyrazol-4-yl)-1H-indol-3-yl)cyclopropane-1-carboxamide], the EC50 fell in the range of 1000 to 5000 nM.

Consider `O=C(Nc1c[nH]c2ccc(-c3cnn(-c4ccc(C(F)(F)F)cc4)c3)cc12)C1(F)CCC1` [Compound 241, 1-fluoro-N-(5-(1-(4-(trifluoromethyl)phenyl)-1H-pyrazol-4-yl)-1H-indol-3-yl)cyclobutane-1-carboxamide], for which the concentration giving a half-maximal response (EC50) fell in the range of 200 to 1000 nM.

Regarding `CCC(=O)Nc1c[nH]c2ccc(-c3cnn(-c4ccc(Cl)cc4)c3)cc12` [Compound 119, N-(5-(1-(4-chlorophenyl)-1H-pyrazol-4-yl)-1H-indol-3-yl)propionamide], the EC50 is 200 to 1000 nM.

For `CC(=O)Nc1c[nH]c2ccc(-c3cnn(Cc4cnc(C5CCC(F)(F)CC5)c(F)c4)c3)cc12` [Compound 250, N-(5-(1-((6-(4,4-difluorocyclohexyl)-5-fluoropyridin-3-yl)methyl)-1H-pyrazol-4-yl)-1H-indol-3-yl)acetamide], the EC50 fell in the range of 5000 to 100000 nM.

`O=C(Nc1c[nH]c2ccc(-c3cnn(-c4ccc(C(F)(F)F)cc4)c3)cc12)c1cn[nH]c1` [Compound 266, N-(5-(1-(4-(trifluoromethyl)phenyl)-1H-pyrazol-4-yl)-1H-indol-3-yl)-1H-pyrazole-4-carboxamide]: the EC50 lay in the range of 200 to 1000 nM.
